Measured values from patent US4504414A, “Synthetic pyridyl-alanyl decapeptides having antiovulatory activity” (Board of Regents, The University of Texas System, priority 1983, dated 1985).
Values joined by “and” are separate entries in the source; they are usually repeats but may differ in a detail not shown here. Equal entries are not always repeated. Where two headings read alike, the source gives them in different places.

Tests used:
ovulation in rats [1] = test: Inhibition of ovulation in rats, subcutaneous administration; assay type: in vivo, rat; conditions: for inhibition of ovulation: 40 hrs before anticipated ovulation
Description: (§1) Biological Assays. The peptides were assayed for activity to inhibit ovulation in rats, as described [J. Humphries, Y.-P. Wan, K. Folkers and C. Y. Bowers; J. Med. Chem. 21, 120-123 (1978)]. The procedure for assay when the antagonist is administered orally is the same except for the route of administration.

ovulation in the rat = test: Assays of antagonists for oral activity (inhibition of ovulation in the rat); assay type: in vivo
Description: as §1
Analogs I, XI and XII were also tested by the oral route of administration for inhibition of ovulation in the rat, since the projected human application would be by oral administration. The data in Table 3 resulted from the administration at noon. When the administration is at 2:30 PM, effectiveness is reduced, presumably because of the LH surge. Analog I caused 100% AOA at a 2 mg dosage with administration at noon and 71% AOA/2 mg and 50% AOA/1 mg by administration at 2:30 PM Nekola et al. [Science 218, 160-162 (1982)] have reported on the oral activity of I under diverse conditions.

ovulation in rats [2] = conditions: data of Coy et al., cited from earlier work

[N--Ac--(pCl--D-Phe)^1,2,D-3-Pal^3,D-Arg^6,D-Abu^10 ]--LHRH [Analog IX]
% AOA (% inhibition of ovulation in rats) (ovulation in rats [1]; dose 1.0 μg): 10%
Rats ovu./No. rats (ovulation in rats [1]; dose 1.0 μg): 9/10

[N--Ac--(pCl--D-Phe)^1,2,D-4-Pal^3,6,D-Ala^10 ]--LHRH [Analog VI]
% AOA (% inhibition of ovulation in rats) (ovulation in rats [1]; dose 6.0 μg): 63% and 62.5%
Rats ovu./No. rats (ovulation in rats [1]; dose 6.0 μg): 3/8

[N--Ac--(pCl--D-Phe)^1,2,D-3-Pal^3,6,D-Ala^10 ]--LHRH [Analog V]
% AOA (% inhibition of ovulation in rats) (ovulation in rats [1]; dose 1.0 μg): 50%
Rats ovu./No. rats (ovulation in rats [1]; dose 1.0 μg): 5/10
% AOA (% inhibition of ovulation in rats) (ovulation in rats [1]; dose 3.0 μg): 100%
Rats ovu./No. rats (ovulation in rats [1]; dose 3.0 μg): 0/7

[N--Ac--(pCl--D-Phe)^1,2,D-4-Pal^3,D-Arg^6,D-Ala^10 ]--LHRH [Analog IV]
% AOA (% inhibition of ovulation in rats) (ovulation in rats [1]; dose 0.5 μg): 14%
Rats ovu./No. rats (ovulation in rats [1]; dose 0.5 μg): 6/7
% AOA (% inhibition of ovulation in rats) (ovulation in rats [1]; dose 6.0 μg): 33%
Rats ovu./No. rats (ovulation in rats [1]; dose 6.0 μg): 6/9

[N--Ac--3,4-diCl--D-Phe^1,pCl--D-Phehu 2,D-3-Pal^3,D-Arg^7, D-Ala^10 ]--LHRH [Analog XII]
Rats ovu./No. rats (ovulation in rats [1]; dose 0.25 μg): 9/9
% AOA (% inhibition of ovulation in rats) (ovulation in rats [1]; dose 0.5 μg): 82%
Rats ovu./No. rats (ovulation in rats [1]; dose 0.5 μg): 9/11
No. Ova. (ovulation in the rat; 250 μg, administered at noon): 12.2 ± 1.0
Rats Ovu./No. Rats (ovulation in the rat; 250 μg, administered at noon): 5/5
% AOA (ovulation in the rat; 500 μg, administered at noon): 63%
No. Ova. (ovulation in the rat; 500 μg, administered at noon): 5.6 ± 2.7
Rats Ovu./No. Rats (ovulation in the rat; 500 μg, administered at noon): 3/8

[N--Ac-- (pCl--D-Phe)^1,2,D-Trp^3,D-3-Pal^6,D-Ala^10 ]--LHRH [Analog VII]
% AOA (% inhibition of ovulation in rats) (ovulation in rats [1]; dose 2.0 μg): 13%

[N--Ac--(pCl--D-Phe)^1,2,D-Trp^3,D-Arg^6,D-Ala^10 ]--LHRH [Analog I, reference compound]
% AOA (% inhibition of ovulation in rats) (ovulation in rats [1]; dose 1.0 μg): 83%
Rats ovu./No. rats (ovulation in rats [1]; dose 1.0 μg): 1/6
% AOA (ovulation in the rat; 1 mg, administered at 2:30 PM): 50%
% AOA (ovulation in the rat; 2 mg, administered at 2:30 PM): 71%
% AOA (ovulation in the rat; 2 mg, administered at noon): 100%
No. Ova. (ovulation in the rat; 2 mg, administered at noon): 0
Rats Ovu./No. Rats (ovulation in the rat; 2 mg, administered at noon): 0/8
% AOA (% inhibition of ovulation in rats) (ovulation in rats [2]; dose 0.75 μg): 40%
Rats ovu./No. rats (ovulation in rats [2]; dose 0.75 μg): 6/10
% AOA (% inhibition of ovulation in rats) (ovulation in rats [2]; dose 1.5 μg): 100%
Rats ovu./No. rats (ovulation in rats [2]; dose 1.5 μg): 0/10

[N--Ac--(pCl--D-Phe)^1,2,D-3-Pal^3,D-Arg^6,D-Ala^10 ]--LHRH [Analog II]
% AOA (% inhibition of ovulation in rats) (ovulation in rats [1]; dose 0.5 μg): 58%
Rats ovu./No. rats (ovulation in rats [1]; dose 0.5 μg): 8/19
% AOA (% inhibition of ovulation in rats) (ovulation in rats [1]; dose 1.0 μg): 78%
Rats ovu./No. rats (ovulation in rats [1]; dose 1.0 μg): 3/14

[N--Ac--(pCl--D-Phe)^1,2,D-2-Pal^3,D-Arg^6,D-Ala^10 ]--LHRH [Analog III]
% AOA (% inhibition of ovulation in rats) (ovulation in rats [1]; dose 1.0 μg): 29%
Rats ovu./No. rats (ovulation in rats [1]; dose 1.0 μg): 5/7

[N--Ac--D-2-Nal^1,pCl--D-Phe^2,D-3-Pal^3,D-Arg^6, D-Ala^10 ]--LHRH [Analog XI]
inhibition of ovulation (ovulation in rats [1]; 10 μg): 100%
inhibition of ovulation (ovulation in rats [1]; 30 μg): 100%
inhibition of ovulation (ovulation in rats [1]; 100 μg): 100%
% AOA (% inhibition of ovulation in rats) (ovulation in rats [1]; dose 0.25 μg): 57%
Rats ovu./No. rats (ovulation in rats [1]; dose 0.25 μg): 3/7
% AOA (% inhibition of ovulation in rats) (ovulation in rats [1]; dose 0.5 μg): 100%
Rats ovu./No. rats (ovulation in rats [1]; dose 0.5 μg): 0/9
% AOA (ovulation in the rat; 250 μg, administered at noon): 10%
No. Ova. (ovulation in the rat; 250 μg, administered at noon): 13.0 ± 1.8
Rats Ovu./No. Rats (ovulation in the rat; 250 μg, administered at noon): 9/10
% AOA (ovulation in the rat; 500 μg, administered at noon): 56%
No. Ova. (ovulation in the rat; 500 μg, administered at noon): 6.1 ± 2.5
Rats Ovu./No. Rats (ovulation in the rat; 500 μg, administered at noon): 4/9

[N--Ac--(pCl--D-Phe)^1,2,D-3-Pal^3,D-Trp^6,D-Ala^10 ]--LHRH [Analog VIII]
Rats ovu./No. rats (ovulation in rats [1]; dose 1.0 μg): 10/10

[N--Ac--(pCl--D-Phe)^1,2,D-3-Pal^3,6 ]--LHRH [Analog X]
% AOA (% inhibition of ovulation in rats) (ovulation in rats [1]; dose 1.0 μg): 17%
Rats ovu./No. rats (ovulation in rats [1]; dose 1.0 μg): 5/6
% AOA (% inhibition of ovulation in rats) (ovulation in rats [1]; dose 3.0 μg): 86%
Rats ovu./No. rats (ovulation in rats [1]; dose 3.0 μg): 1/7
